Measurements taken from paper PMC3784060 (Cancer Chemotherapy and Pharmacology, 2013).
Read-outs that look alike come from different tables or passages of the source.

Experiments:
[1] = test system: acute leukemia (WBC count); conditions: cited from earlier work
[2] = test system: relapsed/refractory AML and ALL; assay: phase II study in acute leukemia: response, blast/WBC reduction, time to progression; format: in vivo, human
Method: Each cycle lasted 21 days. Patient could continue treatment on the study in the absence of disease progression or unacceptable toxicity. The next cycle of therapy could start if non-hematologic toxicity from previous cycle recovered to ≤grade 1, and dose delay of up to 3 weeks was allowed for recovery. Permanent dose reduction was required for any ≥grade 3 clinically significant non-hematologic adverse event (70 mg/m^2 → 50 mg/m^2; 50 mg/m^2 → 40 mg/m^2; 40 mg/m^2 → 30 mg/m^2; 30 mg/m^2 → discontinue). To allow for continued treatment of subjects whose cytopenias were due to leukemia and not due to drug toxicity, subsequent cycles of treatment were allowed if absolute neutrophil count (ANC) ≥0.5 × 10^9/L or for ANC <0.5 × 10^9/L but no more than 20 % below the baseline pretreatment levels and platelet count ≥20 × 10^9/L or platelets <20 × 10^9/L but no more than 20 % below the baseline pretreatment levels. Anti-emetic prophylaxis including serotonin-receptor antagonist, metoclopramide, or prochloperazine with or without dexamethasone was allowed. […] Dexamethasone 20 mg IV was given early if symptoms of cytokine release syndrome were observed.
Response was assessed by bone marrow (BM) examination on day 21 of cycles 1 and 2, and every 6 weeks thereafter until complete remission or progressive disease (PD). Response was determined according to the revised recommendations of the International Working Group (IWG) for AML [33]. Toxicities were graded according to the National Cancer Institute Common Terminology Criteria for Adverse Events (NCI CTCAE), version 3.0 (http://ctep.cancer.gov/protocolDevelopment/electronic_applications/docs/ctcaev3.pdf). Hematologic and chemistry profiles were monitored on day 1 and 2 of each cycle or until resolution of acute toxicities and subsequently at least once a week or more frequently depending on the individual patient’s needs.
The primary efficacy endpoint of the study was the ORR, including complete remission (CR), CR with incomplete count recovery (CRi), and partial remission.

[3] = AML patients, all treated subjects

Compound | patients with >50 % decrease in WBC count ([1]; 1-h bolus for 3 days) [%] | patients with >50 % decrease in WBC count ([1]; hybrid schedule for 3 days) | Beta Posterior Mean (Bayes estimate of the response rate) [2, 3] | Number of Non-responders [2, 3] | Number of Responders [2, 3] | Posterior Probability (This treatment is better) [2, 3] | Observed Response Rate (%) ([2]; AML patients, all treated subjects, frequentist approach) | Median time to progression, Estimate ([2]; all treated AML patients) [weeks] | Number of Events (progression) ([2]; all treated AML patients) | Hazard Ratio, Estimate (Mylotarg/Dinaciclib) ([2]; time to progression, all treated AML patients)
CN1CC[C@H](c2c(O)cc(O)c3c(=O)cc(-c4ccccc4Cl)oc23)[C@H](O)C1 [flavopiridol] | ~44 | approximately 83% | – | – | – | – | – | – | – | –
gemtuzumab ozogamicin [Mylotarg (GO), reference compound] | – | – | 0.167 | 7 | 1 | 0.801 | 12.500 | 7.57 | 7 | 0.71
